The text below walks through data of ChEMBL document CHEMBL1201862, “PubChem BioAssay data set” (2004).

Among the test systems are 786-0; CAKI-1; COLO 205; DU-145; HCT-15; HOP-62; HT-29; IGROV-1; M14; NCI-H23; NCI-H522; OVCAR-4; PC-3; RPMI-8226; RXF 393; SR; SW-620; UACC-257; UO-31; HL-60.
Assay in all cases: NCI-60 cell line screen, 48 h

Structures are written as SMILES.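 Protocol summary: plate cells (96-well), add compound at 5 concentrations, incubate 48 h, interpolate endpoints linearly. Abbreviation: GI50, concentration required for 50% inhibition of growth.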 Active and inactive are the calls of the source. Rule as the data show it: active = GI50 up to about 1.1 µM and inactive = higher.

Take `c1cc2c(cc1C(N1CCNCC1)N1CCNCC1)OCO2`: the GI50 was > 100 µM (inactive) in the test on 786-0; > 100 µM (inactive) with CAKI-1; > 100 µM (inactive) with COLO 205; > 100 µM (inactive) in the test with DU-145; greater than 100 µM in the test on HCT-15; > 100 µM (inactive) in the test with HOP-62. The GI50 in the test with HT-29, in the test with IGROV-1, in the test on M14, in the test on NCI-H23, in the test on NCI-H522 and with OVCAR-4 was > 100 µM (inactive) throughout. Moreover, the GI50 in the test on PC-3 was > 100 µM (inactive); with RPMI-8226, 40.9 µM (inactive); with RXF 393, > 100 µM (inactive); in the test on SR, 9.64 µM (inactive); in the test on SW-620 it was > 100 µM (inactive); in the test with UACC-257, > 100 µM (inactive). For the same compound, the GI50 in the test on UO-31 was > 100 µM (inactive).

With `O=C(/C=C/C(Cl)(Cl)Cl)Nc1ccc(Cl)cc1`, the GI50 in the test on 786-0 is 1.55 µM (inactive); in the test on CAKI-1, 0.8 µM (active); in the test with COLO 205 it was 2.19 µM (inactive); in the test with DU-145, 16.9 µM (inactive); with HCT-15, 3.56 µM; in the test with HL-60 it was 1.48 µM (inactive). The GI50 in the test on HOP-62 was 4.94 µM (inactive); in the test with HT-29 it was 1.94 µM (inactive); with IGROV-1, 0.452 µM (active); in the test on M14 it was 4.62 µM (inactive); in the test with NCI-H23, 3.36 µM (inactive); in the test with NCI-H522, 0.514 µM (active). Further, the GI50 with OVCAR-4 is 1.82 µM (inactive); in the test with PC-3, 12.5 µM (inactive); in the test with RPMI-8226, 2.09 µM (inactive); with RXF 393, 3.01 µM (inactive); with SW-620, 3.38 µM (inactive); in the test with UACC-257, 18.3 µM (inactive). In addition, in the test with UO-31, the GI50 is 0.698 µM (active).

Turning to `CSc1cc(Cl)c(C)cc1S(=O)(=O)NC(=O)NNc1ccc(F)c(Cl)c1`, the GI50 in the test with 786-0 was > 100 µM (inactive); with CAKI-1, > 100 µM (inactive); in the test on COLO 205, > 100 µM (inactive); with DU-145 it was > 100 µM (inactive); in the test on HCT-15, greater than 100 µM; with HOP-62, > 100 µM (inactive). Also, the GI50 in the test on HT-29, with IGROV-1, with M14, in the test on NCI-H522, in the test on OVCAR-4 and in the test on PC-3 was > 100 µM (inactive) throughout. For the same compound, the results for the GI50 with RXF 393, in the test on SR and with SW-620 were > 100 µM (inactive), 61 µM (inactive) and > 100 µM (inactive), respectively.

Regarding `COc1cc(OC)cc(N(C)Cc2cnc3nc(N)nc(N)c3c2C)c1`, the GI50 with 786-0 is 0.427 µM (active); with CAKI-1, 2.04 µM (inactive); in the test with COLO 205, 12.6 µM (inactive); in the test with DU-145, 4.71 µM (inactive); in the test on HCT-15, 1.27 µM; with HOP-62 it was 0.995 µM (active). Further, the GI50 with HT-29 is 2.65 µM (inactive); in the test with IGROV-1, 0.838 µM (active); with M14, 0.652 µM (active); in the test with NCI-H23, 1.25 µM (inactive); in the test on NCI-H522, 2.21 µM (inactive); in the test with OVCAR-4, 20.1 µM (inactive). Moreover, the GI50 in the test on PC-3 was 0.565 µM (active); with RPMI-8226, > 22 µM (inactive); in the test with SR, 0.541 µM (active); in the test with SW-620, 0.585 µM (active); in the test on UACC-257 it was 1.56 µM (inactive); in the test with UO-31, 5.52 µM (inactive).

`Cc1cn(C(Cc2ccccc2)OCCO)c(=O)[nH]c1=O` (stereo unspecified): the GI50 in the test on 786-0 is > 100 µM (inactive); in the test on CAKI-1, > 100 µM (inactive); in the test on COLO 205, > 100 µM (inactive); in the test with DU-145, > 100 µM (inactive); in the test with HCT-15, greater than 100 µM; in the test with HOP-62, > 100 µM (inactive). The GI50 with HT-29, with IGROV-1, in the test on M14, in the test on NCI-H23, with OVCAR-4 and in the test on PC-3 was > 100 µM (inactive) in each case. The GI50 in the test with RPMI-8226, with RXF 393, in the test with SR, in the test with SW-620, in the test with UACC-257 and in the test with UO-31 was > 100 µM (inactive) in each case.

As to `C[n+]1c2ccccc2n2c3ccccc3c(NCCc3ccccn3)c(C#N)c21`, the GI50 with 786-0 was 1.58 µM (inactive); in the test with CAKI-1, 1.98 µM (inactive); in the test with COLO 205, 1.68 µM (inactive); with DU-145, 2.72 µM (inactive); with HCT-15, 2.33 µM; with HL-60 it was 3.13 µM (inactive). Further, the GI50 is 2.11 µM (inactive) with HOP-62; 2.99 µM (inactive) with HT-29; 2.38 µM (inactive) in the test with M14; 2.56 µM (inactive) in the test with NCI-H23; 0.828 µM (active) in the test on NCI-H522; 0.804 µM (active) with OVCAR-4. The GI50 in the test on PC-3 is 2.55 µM (inactive); with RPMI-8226, 1.64 µM (inactive); in the test with RXF 393, 1.01 µM (active); in the test on SW-620, 0.661 µM (active); in the test on UACC-257, 3.5 µM (inactive); with UO-31 it was 1.76 µM (inactive).

Turning to `c1ccc2nn(C3CCCCO3)nc2c1` (stereo unspecified), the GI50 in the test on 786-0 was > 100 µM (inactive); in the test with CAKI-1, > 100 µM (inactive); in the test on COLO 205 it was > 100 µM (inactive); with DU-145 it was > 100 µM (inactive); in the test on HCT-15, greater than 100 µM; in the test on HOP-62, > 100 µM (inactive). In addition, the GI50 in the test with HT-29, in the test on IGROV-1, in the test on M14, with NCI-H23, in the test on NCI-H522 and in the test on OVCAR-4 was > 100 µM (inactive) in each case. Moreover, the GI50 in the test with PC-3, in the test on RXF 393, in the test with SR, with UACC-257 and with UO-31 was > 100 µM (inactive) in each case.

With `O=C1CSc2nc3ccccc3n2/C=N\N1`, the GI50 is > 100 µM (inactive) with 786-0; > 100 µM (inactive) with CAKI-1; > 100 µM (inactive) with COLO 205; > 100 µM (inactive) in the test with DU-145; greater than 100 µM in the test on HCT-15; > 100 µM (inactive) with HT-29. Further, the GI50 in the test on M14, with NCI-H23, with NCI-H522, with OVCAR-4, in the test on PC-3 and with RPMI-8226 was > 100 µM (inactive) each time. Besides, the GI50 in the test with RXF 393, with SR, with SW-620, in the test on UACC-257 and in the test with UO-31 was > 100 µM (inactive) each time.

`CCOC(=O)NNC(=O)C1CSC(c2ccccc2)N1C(C)=O` (stereo unspecified): the GI50 with 786-0 was > 100 µM (inactive); in the test with CAKI-1, > 100 µM (inactive); with COLO 205, > 100 µM (inactive); with DU-145, > 100 µM (inactive); with HCT-15, greater than 100 µM; in the test on HL-60 it was > 100 µM (inactive). The GI50 in the test on HOP-62, in the test on HT-29, with IGROV-1, with M14, in the test with NCI-H23 and with NCI-H522 was > 100 µM (inactive) in each case. In addition, the GI50 in the test with OVCAR-4, in the test on PC-3, in the test on RPMI-8226, in the test on SW-620, in the test on UACC-257 and in the test with UO-31 was > 100 µM (inactive) in each case.

For `CN(C)c1ccc(/C=N/NC(=O)c2cnc3ccccc3c2)cc1`, the GI50 in the test with 786-0 was 78.5 µM (inactive); in the test with CAKI-1 it was > 100 µM (inactive); in the test on COLO 205, > 100 µM (inactive); with DU-145, 59.3 µM (inactive); in the test on HCT-15, greater than 100 µM; with HL-60 it was > 100 µM (inactive). Moreover, the GI50 in the test on HOP-62 is 35.5 µM (inactive); with IGROV-1, 51.1 µM (inactive); in the test with M14, > 100 µM (inactive); in the test with NCI-H23, > 100 µM (inactive); with NCI-H522, 18.1 µM (inactive); in the test on OVCAR-4, > 100 µM (inactive). In addition, the GI50 in the test with PC-3 is > 100 µM (inactive); with RPMI-8226 it was > 100 µM (inactive); with RXF 393, 19.9 µM (inactive); with SW-620, > 100 µM (inactive); in the test with UACC-257 it was > 100 µM (inactive); in the test with UO-31, > 100 µM (inactive).

As to `CN1CCN(/C(N)=C(\C#N)C(=O)Nc2ccccc2)CC1`, the GI50 in the test on 786-0 was > 100 µM (inactive); in the test with CAKI-1, > 100 µM (inactive); in the test with COLO 205, > 100 µM (inactive); in the test with DU-145, > 100 µM (inactive); with HCT-15, greater than 100 µM; with HOP-62, > 100 µM (inactive). For the same compound, the GI50 in the test on IGROV-1, in the test with M14, in the test on NCI-H23, in the test with PC-3, in the test on RPMI-8226 and with SR was > 100 µM (inactive) each time. Besides, the GI50 with SW-620, with UACC-257 and in the test with UO-31 was > 100 µM (inactive) in each case.

In the case of `OCC1C2CCC3(OCCO3)C12` (stereo unspecified), the GI50 in the test on 786-0 is > 100 µM (inactive); in the test on CAKI-1 it was > 100 µM (inactive); with COLO 205 it was > 100 µM (inactive); with DU-145, > 100 µM (inactive); with HCT-15, greater than 100 µM; in the test on HOP-62 it was > 100 µM (inactive). For the same compound, the GI50 in the test on HT-29 was > 100 µM (inactive); in the test on IGROV-1, > 100 µM (inactive); in the test with M14 it was > 100 µM (inactive); with NCI-H23 it was 18.2 µM (inactive); with NCI-H522, > 100 µM (inactive); with OVCAR-4, > 100 µM (inactive). The GI50 in the test on PC-3, with RPMI-8226, with RXF 393, in the test on SR, with SW-620 and in the test on UACC-257 was > 100 µM (inactive) each time. Also, in the test on UO-31, the GI50 was 15.4 µM (inactive).
